The assay has as its target T1, UGT2B7 (Homo sapiens, UniProt P16662).
T1 sequence (P16662 24-529): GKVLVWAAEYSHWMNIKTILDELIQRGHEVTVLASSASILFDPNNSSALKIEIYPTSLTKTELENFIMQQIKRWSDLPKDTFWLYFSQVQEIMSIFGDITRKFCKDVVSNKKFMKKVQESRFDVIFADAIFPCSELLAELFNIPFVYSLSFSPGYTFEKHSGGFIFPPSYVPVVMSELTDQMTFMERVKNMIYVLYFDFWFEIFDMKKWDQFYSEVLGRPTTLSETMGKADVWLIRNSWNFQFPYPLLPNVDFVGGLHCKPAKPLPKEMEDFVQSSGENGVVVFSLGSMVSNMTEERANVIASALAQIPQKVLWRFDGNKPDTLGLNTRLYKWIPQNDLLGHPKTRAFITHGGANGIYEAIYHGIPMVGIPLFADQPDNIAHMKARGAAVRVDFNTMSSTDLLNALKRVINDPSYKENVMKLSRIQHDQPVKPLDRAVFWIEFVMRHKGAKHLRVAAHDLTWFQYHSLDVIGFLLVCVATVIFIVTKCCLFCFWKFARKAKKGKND
The assay is described as follows: Inhibition of recombinant UGT2B7 activity (4-MU glucuronidation). As to the method: A panel of recombinant human UGT supersomes (UGT1A1, UGT1A3, UGT1A4, UGT1A6, UGT1A7, UGT1A8, UGT1A9, UGT1A10, UGT2B4, UGT2B7, UGT2B15, and UGT2B17) expressed in baculovirus-infected insect cells were purchased from BD Gentest Corp. (Woburn, MA, USA).
4-MU, a nonselective substrate of UGTs, was used as probe substrate for all UGTs except UGT1A4. Incubations with each individual enzyme were conducted using conditions previously described. There was a 5 min preincubation step at 37°C before the reaction was started by addition of UDPGA. The incubation mixtures were then centrifuged at 20,500 ×g for 15 min to obtain the supernatant. Aliquots (20 μL) were then analyzed by HPLC. The HPLC system (SHIMADZU, Kyoto, Japan) consisted of an SCL-10A system controller, two LC-10AT pumps, a SIL-10A auto injector, and a SPD-10AVP UV detector. Chromatographic separation was achieved using a Kromasil ODS column (4.6 × 150 mm I.D., 5 μm particle size) at a flow rate of 1 mL/min and UV detection at 316 nm. The mobile phase consisted of 10 mM KH2PO4, pH 2.7 (A) and acetonitrile (B). The following gradient was applied at a flow rate of 1 mL/min: 0–4 min 80% A and 20% B, 4.1–8 min 50% A and 50% B, 8.1–12 min, 30% A and 70% B. All experiments were performed in two independent experiments in duplicate.
A typical incubation mixture contained recombinant human UGTs, 5 mM MgCl2, 5 mM UDPGA, 50 μg/mg protein alamethicin, 50 mM Tris-HCl buffer (pH 7.4), and various probe substrates of UGTs in the absence or presence of different concentrations of inhibitors. […] The final concentration of DMSO in the incubation system was 1% (v/v). […] Known UGT inhibitors were used as positive controls: diclofenac for UGT1A1, UGT1A6, UGT1A7, and UGT1A9; androsterone for UGT1A3, UGT2B7, and UGT2B15, phenylbutazone for UGT1A8 and UGT1A10, and hecogenin for UGT1A4, respectively. There is no positive control reported available for UGT2B4 and UGT2B17. The negative controls are the incubation without UDPGA. […] The final concentration of DMSO in the incubation system was 1% (v/v). […] There was a 5 min preincubation step at 37°C before the reaction was started by the addition of UDPGA. Incubation times were 120 min for UGT1A1, UGT1A10, UGT2B4, UGT2B15, and UGT2B17, 75 min for UGT1A3, and 30 min for UGT1A4, UGT1A6, UGT1A7, UGT1A8, and UGT1A9. The reactions were quenched by adding 100 μL acetonitrile and internal standard. The incubation mixtures were then centrifuged at 20,500 ×g for 15 min to obtain the supernatant. An aliquot of the supernatant was used for HPLC analysis as described above. All experiments were performed in two independent experiments in duplicate.
Inhibition data from experiments were graphically represented by Dixon plots. K i values were calculated by nonlinear regression using the equations for competitive inhibition (1), noncompetitive inhibition (2), or mixed inhibition (3), [22] […] The type of inhibition was determined from the enzyme inhibition models. Goodness of fit to kinetic and inhibition models was assessed from the F statistic, r ^2 values, parameter standard error estimates, and 95% confidence intervals. […]
The IC50 is the concentration that gives 50% inhibition. Turning to `COc1ccc(-c2oc3c(CC=C(C)C)c(O)cc(O)c3c(=O)c2O)cc1` [Icaritin], the IC50 is > 100 µM. On to `COc1ccc(-c2oc3c(CC=C(C)C)c(O[C@@H]4O[C@H](CO)[C@@H](O)[C@H](O)[C@H]4O)cc(O)c3c(=O)c2O[C@@H]2O[C@@H](C)[C@H](O)[C@@H](O)[C@H]2O)cc1` [Icariin], for which the IC50 was > 100 µM.

`COc1ccc(-c2oc3c(CC=C(C)C)c(O[C@@H]4O[C@H](CO)[C@@H](O)[C@H](O)[C@H]4O)cc(O)c3c(=O)c2O)cc1` [Icariside I]: the half-inhibitory concentration (IC50) was > 100 µM.

(Values after publication PMC3479967 (Evidence-based Complementary and Alternative Medicine : eCAM, 2012).)
